We go through three compounds from patent US10743535B2, “Insecticide for flight-capable pests” (H&K SOLUTIONS LLC, priority 2017, dated 2020).

Series [1] relates to lanternfly. To be noted: in vivo; cited from earlier work.
In series [2] the test system is bees. The following applies: perhaps contributing to the collapse of bee colonies; cited from earlier work.
The test system of series [3] is spotted lanternflies (lycorma delicatula). Nature of the series: formulations sprayed on lantern flies to test lethality. It counts as in vivo. To be noted: applied by spraying the top of the insect; lethal = the insect dies within 10 minutes. As for the experimental part:
The concentration of menthol in the insecticide should be sufficient such that it is lethal to the insect. As used herein, the term “lethal” means that, once applied by spraying the top of the insect, the insect dies within 10 minutes. Those of skill in the art can determine a lethal dose of menthol without undue experimentation. Although higher doses tend to result in a shorter kill time, given the expense of menthol, it is generally preferred to minimize its concentration to achieve a sufficient kill time, i.e., less than 10 minutes and preferably less than 2 minutes, and more preferably less than 1 minute.
The following nonlimiting examples illustrate the effectiveness of the insecticide of the present invention. […] In all cases, the formulations were applied to lantern flies to test the effectiveness of the particular formulation, and, in all cases, the formulations were lethal as defined in this application.
Again, in all cases, the formulations were applied to lantern flies to test the effectiveness of the particular formulation, and, in all cases, the formulation were lethal as defined in this application.

As for `CN/C(=N/CC1CCOC1)N[N+](=O)[O-]` (centres unmarked) [Dinotefuran], in series [1], the “shown to be effective in exterminating the lanternfly” value is “effective” and the “time to kill the lanternfly” value is “hours”. Further, in series [2], the effect on bees result was “detrimental”.

Consider `CC1(C)C(C=C(Cl)Cl)C1C(=O)OCc1cccc(Oc2ccccc2)c1` (centres unmarked) [Permethrin], for which the “shown to be effective in exterminating the lanternfly” value in series [1] is given as “effective”.

Regarding `CC1CCC(C(C)C)C(O)C1` (centres unmarked) [menthol], the lethal to lanternfly result in series [3] was “lethal”.
